Here are results for 25 compounds from publication PMC2215335 (The Journal of General Physiology, 1977).

The test system of data set [1] is membrane chloride conductance (GCl), rat diaphragm. Kind of data set: Inhibition of membrane chloride conductance. The class given is cell-based. The settings on record: for Relative potency: potency of 1 for a compound having a Ki of 1 x 10^-2 M; for Reduction of GCl: 10-s M (so in the source).
Data set [2] deals with residual conductance in chloride-free solution (largely attributable to K+), rat diaphragm. Kind of data set: Residual conductance in chloride-free solution. The class given is cell-based.
Data set [3] has as its system red blood cell (RBC) surface charge. Description: Electrophoretic mobility of erythrocytes. Also on record: species or system human. The settings on record: concentrations 0.1 to 100 times the Ki.
Data set [4] has as its system membrane anion permeability, rat diaphragm. Description: Anion permeability sequence, bi-ionic potential shift measurements. The class given is cell-based.
The test system of another data set is rat diaphragm fibers. Kind of data set: Resting membrane potential of diaphragm fibers. The class given is cell-based. The settings on record: fibers exposed to 2 x 10-s M 9-AC (so in the source); SD.
In data set [5] the test system is Cl- current, rat diaphragm fibers. Kind of data set: Current-voltage relationships of diaphragm fibers. The class given is cell-based. The settings on record: 2 x 10^-5 M 9-AC, 20 ms after onset of hyperpolarizing pulses, all voltage levels.
The subject of data set [6] is membrane anion conductances (GCl, GBr, GNO3, GI), rat diaphragm. Kind of data set: Anion conductance sequence in rat diaphragm. The class given is cell-based.
In data set [7] the test system is membrane resistance, rat diaphragm. Description: Membrane resistance of diaphragm in vitro during perfusion and wash. The class given is cell-based.

Entries after “also recorded” stand apart in the source; their conditions may differ. Bounds are passed on as bounds.

The compound `Cc1ccc(C(=O)O)c(C)c1` [2,4-Dimethyl BA] returned a Relative potency in data set [1] of 6.2. Further, the “Effects on residual conductances (GK)” value in data set [2] is on record as “+”.
With `Cc1cc(C)c(C)c(C(=O)O)c1C` [2,3,5,6-Tetramethyl BA], the Relative potency in data set [1] was 16.7. Further, the “Effects on residual conductances (GK)” value in data set [2] is recorded as 0.
Take `O=C(O)c1ccccc1` [Benzoic acid (BA), Benzoic acid]: the “Effects on residual conductances (GK)” value in data set [2] was 0.
In data set [1], `O=C(O)c1c(Cl)ccc(Cl)c1Cl` [2,3,6-Trichloro BA] showed a Relative potency of 10.5. Further, in data set [2], the “Effects on residual conductances (GK)” value turned out to be 0.
Compound `O=C(O)c1c(Cl)cccc1Cl` [2,6-Dichloro BA] gave a Relative potency in data set [1] of 5.0. In addition, the “Effects on residual conductances (GK)” value in data set [2] came to 0.
In the case of `Cc1cc(C)c(C(=O)O)cc1C` [2,4,5-Trimethyl benzoic acid], the Relative potency in data set [1] is listed as 152. Besides, the “Effects on residual conductances (GK)” value in data set [2] was “+”. In addition, the “Red blood cell (RBC) electrophoretic mobility” value in data set [3] was “No change”. For the same compound, in data set [4] (increasing analog concentration), the Permeability sequence inversion result is “same sequence inversions were observed”.
`O=C(O)c1c(Cl)c(Cl)cc(Cl)c1Cl` [2,3,5,6-Tetrachloro BA] gave a Relative potency in data set [1] of 47. Moreover, the “Effects on residual conductances (GK)” value in data set [2] is recorded as “+”.
`O=C(O)c1cc(Cl)ccc1Cl` [2,5-Dichloro BA] came in with a Relative potency in data set [1] of 33.3. In data set [2], the “Effects on residual conductances (GK)” value amounted to 0.
On to `Cc1cc(C(=O)O)cc(C)c1O` [3,5-Dimethyl-4-hydroxy BA], for which, in data set [1], the Relative potency was < 0.1. The “Effects on residual conductances (GK)” value in data set [2] stood at 0.
Consider `Cc1ccc(C(=O)O)cc1C` [3,4-Dimethyl BA], for which the Relative potency in data set [1] is recorded as 5.0. The “Effects on residual conductances (GK)” value in data set [2] came out at 0.
In the case of 3,~-Dichloro-2-amino BA, the Relative potency in data set [1] was 76. Moreover, the “Effects on residual conductances (GK)” value in data set [2] is reported as “+”.
`O=C(O)c1c(Cl)ccc(Cl)c1[N+](=O)[O-]` [3,6-Dichloro-2-nitro BA] showed a Relative potency in data set [1] of 6.0. Further, the “Effects on residual conductances (GK)” value in data set [2] stood at 0.
`O=C(O)c1ccc(Cl)c(Cl)c1` [3,4-Dichloro BA]: the Relative potency in data set [1] stood at 38. In addition, the “Effects on residual conductances (GK)” value in data set [2] was found to be 0.
Compound `Cc1cc(C)c(C(=O)O)c(C)c1` [2,4,6-Trimethyl BA] came in with a Relative potency in data set [1] of 2.5. Further, the “Effects on residual conductances (GK)” value in data set [2] is 0.
`Cc1cc(C(=O)O)cc(C)c1[N+](=O)[O-]` [3,5-Dimethyl-4-nitro BA] displayed a Relative potency in data set [1] of 3.6. The “Effects on residual conductances (GK)” value in data set [2] is recorded as 0.
Compound `O=C(O)c1c(Cl)c(Cl)c(Cl)c(Cl)c1Cl` [Pentachloro BA] registered a Relative potency in data set [1] of 125. The “Effects on residual conductances (GK)” value in data set [2] was “+”.
On to `Cc1cc(C(=O)O)cc(C)c1N` [3,5-Dimethyl-4-amino BA], for which the Relative potency in data set [1] is < 0.3.
In the case of `Cc1ccc(C)c(S(=O)(=O)O)c1` [2,5-Dimethyl benzene SOsH], in data set [1], the Relative potency is given as < 0.3. In addition, in data set [2], the “Effects on residual conductances (GK)” value stood at 0.
On to `Cc1c(C)c(C(=O)O)c(C)c(C)c1C(=O)O` [2,3,5,6-Tetramethyl-4-COOH-BA], for which the Relative potency in data set [1] is listed as < 0.1. Further, in data set [1] (rat diaphragm), the “Effect on GCl (in words)” value is listed as “without detectable effect on Gel”. In addition, the “Effects on residual conductances (GK)” value in data set [2] was found to be 0.
`O=C(O)c1cc(Cl)cc(Cl)c1` [3,5-Dichloro BA]: the Relative potency in data set [1] was 40. In data set [2], the “Effects on residual conductances (GK)” value is reported as 0.
The matching figures for `Cc1ccc(C)c(C(=O)O)c1` [2,5-Dimethyl BA]: 32 and 0.
As for `O=C(O)c1c2ccccc2cc2ccccc12` [9-AC, anthracene-9-COOH], the “Reduction of GCl” value is on record as 54% in data set [1] (depolarizing pulses), 58% in data set [1] (hyperpolarizing pulses), > 90% in data set [6] (9-AC at 5 x 10^-5 M) and “approximately 50%” in data set [6] (9-AC at 8 x 10^-6 M). The “Percent reduction in observed GCl at varied external Ca2+” value in data set [1] (10^-5 M 9-AC, external [Ca2+] 2 mM, 10 mM and 20 mM) is listed as “the same”. The compound also returned a Relative potency in data set [1] of 909. Moreover, the “Effects on residual conductances (GK)” value in data set [2] was 0. Besides, the “Average resting membrane potential (RMP)” value with rat diaphragm fibers amounted to 68.3 ± 3.8 mV. Besides, the “Red blood cell (RBC) electrophoretic mobility” value in data set [3] is reported as “No change”. In addition, the “Early I-V relationships relative to control values” in data set [5] was “about 30 % of control”. In data set [6] (8 x 10^-6 M 9-AC (table prints 8 x 10-e M)), the Anion conductance sequence entry is “CI>I>NO3>Br”. The “Change of GI” value in data set [6] (9-AC at 5 x 10^-5 M) is recorded as “appeared increased relative to control values”; in data set [6] (9-AC at 8 x 10^-6 M) it was “appeared to increase”. Also, in data set [6] (9-AC at 8 x 10^-6 M), the “Change of GBr” value is on record as “changed little”. The “Effect on GI at concentrations reducing GCl by >90%” value in data set [6] (9-AC concentrations reducing GCl by more than 90 percent) is listed as “slight augmentation of G(I); also recorded: slight augmentation of GI”. Besides, the “Relative permeability I- vs Cl-” value in data set [4] (5 x 10^-5 M 9-AC, 30 min) is “more permeable to I- than to el-”. Also, the “Time for increase in membrane resistance to reach new steady value” in data set [7] (10^-5 M 9-AC in Ringer's) was ≤ 10 min. For the same compound, the “Membrane resistance in chloride-free Ringer's” value in data set [7] (methylsulfate-substituted chloride-free Ringer's, same concentration (10^-5 M)) is listed as “unaffected”. Besides, in data set [7] (reperfusion with normal Ringer's after 10^-5 M 9-AC), the “Time for membrane resistance to return to near control levels” value lay within 30 to 60 min.
As to `O=C(O)COc1ccc(Cl)cc1Cl` [2,4-Dichloro phenoxyacetic acid], the Relative potency in data set [1] came to 5.0.
Take `Cc1cc(C)cc(C(=O)O)c1` [3,5-Dimethyl BA]: in data set [1], the Relative potency came to 6.7. The “Effects on residual conductances (GK)” value in data set [2] is 0.
The compound `O=C(O)c1cc(Cl)c(Cl)cc1C(=O)O` [4,5-Dichioro-2-COOH BA] showed a Relative potency in data set [1] of 0.63. Besides, the “Effects on residual conductances (GK)” value in data set [2] is listed as 0.
